According to patent US8597620B2, “Composition comprising a tocopherol phosphate and preparation process” (LVMH Recherche, priority 2010, dated 2013):

Assay: Assaying of tocopherol phosphate by HPLC in the concentrated aqueous solution (state of dissolution)
Format: physicochemical
Details: concentrated aqueous solution of Example 1 (3.5% PPG-6-Decyltetradeceth-20, 17.4% 1,2-pentanediol, 8.7% γ-TPNa added, water), UV 290 nm, ambient temperature
Experimental: Method for the Assaying of Tocopherol Phosphate by HPLC
The concentrated solution of γ-TPNa obtained in Example 1 and the compositions prepared in Examples 2 to 5 are assayed for tocopherol phosphate by HPLC according to the following conditions:
Elution gradient:—Eluent A: sodium acetate/acetic acid buffer pH 4.2 • Eluent B=methanol/THF (80/20)
Preparation of the Solutions
Diluent: Eluent A/eluent B (20/80 v/v)
Standard solution for the calibration=solution of γ-TPNa at 0.08 mg/ml of diluent.
Solution for the assaying of the concentrated solution (Ex. 1):
100 mg of the concentrated aqueous solution are withdrawn and diluted in 100 ml of diluent.

## Cc1c(OP(=O)([O-])[O-])cc2c(c1C)OC(C)(CCCC(C)CCCC(C)CCCC(C)C)CC2.[Na+].[Na+] (stereo not shown) [γ-TPNa, Sodium salt of γ-tocopherol phosphate]
  Result of the assaying of the γ-TPNa in the concentrated solution (dissolved amount): 8.7 % by weight
